Measured values reported in patent publication US9771369B2, “Compounds and methods for kinase modulation, and indications therefor” (Plexxikon Inc., priority 2014, dated 2017).

What was measured:
c-Kit kinase = c-Kit kinase (Homo sapiens (Human), UniProt P10721); assay: c-Kit biochemical assay (AlphaScreen kinase activity)
Summary of the method: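 AlphaScreen: c-Kit phosphorylates biotin-(E4Y)3 (100 nM) at 10 μM ATP, pH 7.2 HEPES buffer with Mg/Mn, 5% DMSO, 1 h room temperature; streptavidin donor and PY30 acceptor beads detect product. Second format: 100 μM ATP, 30 nM biotin-(E4Y)10, pH 7.5. IC50 from 8-point 1:3 dilution curves.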

[1] = tested on: BaF3-FL KIT D816V or BaF3-FL KIT V560G/D816V cell line; assay: Cell-based assays of c-Kit mutant kinase activity (cell proliferation, ATPlite); conditions: at least one of the c-kit cell assays of Example 7
Summary of the method: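 BaF3 cells dependent on transfected full-length human KIT D816V or V560G/D816V (pCI-Neo, CMV promoter) were seeded at 1×10^4 cells/well and exposed to 8-point 1:3 dilutions from 10 μM top (0.2% DMSO) for three days at 37° C. ATPlite luminescence gave cell number; IC50 from concentration-response.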

c-Kit kinase, sequence (P10721 26-976): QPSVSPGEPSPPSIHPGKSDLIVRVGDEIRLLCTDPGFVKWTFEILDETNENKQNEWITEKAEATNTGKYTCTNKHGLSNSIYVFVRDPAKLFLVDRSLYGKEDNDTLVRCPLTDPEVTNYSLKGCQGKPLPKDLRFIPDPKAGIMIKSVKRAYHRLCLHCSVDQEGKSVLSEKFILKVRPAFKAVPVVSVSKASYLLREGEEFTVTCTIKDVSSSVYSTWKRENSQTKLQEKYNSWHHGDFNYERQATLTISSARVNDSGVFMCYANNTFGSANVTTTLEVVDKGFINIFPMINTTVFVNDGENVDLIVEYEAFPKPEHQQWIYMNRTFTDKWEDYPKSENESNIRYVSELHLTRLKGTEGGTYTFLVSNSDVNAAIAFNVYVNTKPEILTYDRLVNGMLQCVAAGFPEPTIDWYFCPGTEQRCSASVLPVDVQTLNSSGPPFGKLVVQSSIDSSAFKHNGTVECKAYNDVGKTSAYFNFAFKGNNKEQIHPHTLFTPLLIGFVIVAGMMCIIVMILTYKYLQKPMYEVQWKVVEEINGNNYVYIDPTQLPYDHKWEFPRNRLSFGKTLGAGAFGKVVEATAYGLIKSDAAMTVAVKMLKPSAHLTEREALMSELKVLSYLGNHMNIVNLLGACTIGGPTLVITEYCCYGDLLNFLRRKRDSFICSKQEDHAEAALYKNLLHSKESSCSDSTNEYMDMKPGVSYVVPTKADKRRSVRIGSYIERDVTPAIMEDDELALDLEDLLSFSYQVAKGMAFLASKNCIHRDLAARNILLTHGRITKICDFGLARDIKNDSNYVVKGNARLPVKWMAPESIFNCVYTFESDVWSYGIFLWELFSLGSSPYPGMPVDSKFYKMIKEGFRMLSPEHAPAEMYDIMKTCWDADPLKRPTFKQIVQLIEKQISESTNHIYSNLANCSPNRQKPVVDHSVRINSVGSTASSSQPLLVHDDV

| SMILES | IC50 (c-Kit kinase) [µM] | IC50 [1] [nM] |
| --- | --- | --- |
| COc1ccc(-c2cc3c(N4CCC(C)(c5nc(C)c(-c6cccc(OC(F)F)c6)[nH]5)CC4)ncnc3[nH]2)cn1 [P-3193, 4-[4-[5-[3-(difluoromethoxy)phenyl]-4-methyl-1H-imidazol-2-yl]-4-methyl-1-piperidyl]-6-(6-methoxy-3-pyridyl)-7H-pyrrolo[2,3-d]pyrimidine] | 0.0001 to 1 | < 10000 |
| Cc1nc(C2(C)CCN(c3ncnc4[nH]c(-c5ccc(C#N)cc5)cc34)CC2)[nH]c1-c1cccc(OC(F)F)c1 [P-3194, 4-[4-[4-[5-[3-(difluoromethoxy)phenyl]-4-methyl-1H-imidazol-2-yl]-4-methyl-1-piperidyl]-7H-pyrrolo[2,3-d]pyrimidin-6-yl]benzonitrile] | 1 to 10 | < 10000 |
| Cc1nc(C2(C)CCN(c3ncnc4[nH]c(-c5ccc(C#N)cc5)cc34)CC2)[nH]c1-c1ccc(OC(F)F)cc1 [P-3195, 4-[4-[4-[5-[4-(difluoromethoxy)phenyl]-4-methyl-1H-imidazol-2-yl]-4-methyl-1-piperidyl]-7H-pyrrolo[2,3-d]pyrimidin-6-yl]benzonitrile] | 0.0001 to 1 | < 10000 |
| Cc1cc2c(N3CCC(C)(c4nc(C)c(-c5ccc(OC(F)F)cc5)[nH]4)CC3)ncnc2[nH]1 [P-3196, 4-[4-[5-[4-(difluoromethoxy)phenyl]-4-methyl-1H-imidazol-2-yl]-4-methyl-1-piperidyl]-6-methyl-7H-pyrrolo[2,3-d]pyrimidine] | 1 to 10 | < 10000 |
| CCc1[nH]c(C2CCN(c3ncnc4[nH]c(-c5cnn(C(F)F)c5)cc34)CC2)nc1C [P-3197, 6-[1-(difluoromethyl)pyrazol-4-yl]-4-[4-(5-ethyl-4-methyl-1H-imidazol-2-yl)-1-piperidyl]-7H-pyrrolo[2,3-d]pyrimidine] | 1 to 10 | < 10000 |
| CCc1[nH]c(C2CCN(c3ncnc4[nH]c(-c5ccc(C#N)cc5)cc34)CC2)nc1C [P-3198, 4-[4-[4-(5-ethyl-4-methyl-1H-imidazol-2-yl)-1-piperidyl]-7H-pyrrolo[2,3-d]pyrimidin-6-yl]benzonitrile] | 1 to 10 | < 10000 |
| COc1ccc(-c2[nH]c(C3(C)CCN(c4ncnc5[nH]c(-c6ccc(C(=O)O)cc6)cc45)CC3)nc2C)cc1F [P-3199, 4-[4-[4-[5-(3-fluoro-4-methoxy-phenyl)-4-methyl-1H-imidazol-2-yl]-4-methyl-1-piperidyl]-7H-pyrrolo[2,3-d]pyrimidin-6-yl]benzoic acid] | 0.0001 to 1 | < 10000 |
| Cc1nc(C2(C)CCN(c3ncnc4[nH]nc(C)c34)CC2)[nH]c1-c1ccc(Cl)cc1 [P-3200, 4-[4-[5-(4-chlorophenyl)-4-methyl-1H-imidazol-2-yl]-4-methyl-1-piperidyl]-3-methyl-1H-pyrazolo[3,4-d]pyrimidine] | 1 to 10 | < 10000 |
| Cc1nc(C2(C)CCN(c3ncnc4[nH]nc(C)c34)CC2)[nH]c1-c1cccc(OC(F)F)c1 [P-3201, 4-[4-[5-[3-(difluoromethoxy)phenyl]-4-methyl-1H-imidazol-2-yl]-4-methyl-1-piperidyl]-3-methyl-1H-pyrazolo[3,4-d]pyrimidine] | 1 to 10 | < 10000 |
| COc1ccc(-c2[nH]c(C3(C)CCN(c4ncnc5[nH]nc(C)c45)CC3)nc2C)cc1F [P-3202, 4-[4-[5-(3-fluoro-4-methoxy-phenyl)-4-methyl-1H-imidazol-2-yl]-4-methyl-1-piperidyl]-3-methyl-1H-pyrazolo[3,4-d]pyrimidine] | 1 to 10 | < 10000 |
| Cc1nc(C2(C)CCN(c3ncnc4[nH]nc(C)c34)CC2)[nH]c1-c1ccc2c(c1)OC(F)(F)O2 [P-3203, 4-[4-[5-(2,2-difluoro-1,3-benzodioxol-5-yl)-4-methyl-1H-imidazol-2-yl]-4-methyl-1-piperidyl]-3-methyl-1H-pyrazolo[3,4-d]pyrimidine] | 1 to 10 | < 10000 |
| Fc1ccc(-c2cc3c(N4CCC(c5nnc(-c6ccc(F)cc6)[nH]5)CC4)ncnc3[nH]2)cc1 [P-3206, 6-(4-fluorophenyl)-4-[4-[5-(4-fluorophenyl)-4H-1,2,4-triazol-3-yl]-1-piperidyl]-7H-pyrrolo[2,3-d]pyrimidine] | 1 to 10 | < 10000 |
| COc1cc(-c2cc3c(N4CCC(c5nnc(-c6cccc(OC(F)F)c6)[nH]5)CC4)ncnc3[nH]2)ccn1 [P-3207, 4-[4-[5-[3-(difluoromethoxy)phenyl]-4H-1,2,4-triazol-3-yl]-1-piperidyl]-6-(2-methoxy-4-pyridyl)-7H-pyrrolo[2,3-d]pyrimidine] | 1 to 10 | < 10000 |
| CCOc1ccc(-c2[nH]c(C3(C)CCN(c4ncnc5[nH]c(-c6ccc(OC)nc6)cc45)CC3)nc2C)cc1F [P-3209, 4-[4-[5-(4-ethoxy-3-fluoro-phenyl)-4-methyl-1H-imidazol-2-yl]-4-methyl-1-piperidyl]-6-(6-methoxy-3-pyridyl)-7H-pyrrolo[2,3-d]pyrimidine] | 0.0001 to 1 | < 10000 |
| CCOc1ccc(-c2[nH]c(C3(C)CCN(c4ncnc5[nH]c(-c6cnn(C(F)F)c6)cc45)CC3)nc2C)cc1F [P-3210, 6-[1-(difluoromethyl)pyrazol-4-yl]-4-[4-[5-(4-ethoxy-3-fluoro-phenyl)-4-methyl-1H-imidazol-2-yl]-4-methyl-1-piperidyl]-7H-pyrrolo[2,3-d]pyrimidine] | 0.0001 to 1 | < 10000 |
| COc1ccc(-c2[nH]c(C3(C)CCN(c4ncnc5[nH]c(-c6ccc(C#N)nc6)cc45)CC3)nc2C)cc1F [P-3211, 5-[4-[4-[5-(3-fluoro-4-methoxy-phenyl)-4-methyl-1H-imidazol-2-yl]-4-methyl-1-piperidyl]-7H-pyrrolo[2,3-d]pyrimidin-6-yl]pyridine-2-carbonitrile] | 1 to 10 | < 10000 |
| COc1ccc(-c2[nH]c(C3(C)CCN(c4ncnc5[nH]c(-c6ccc(C(N)=O)cc6)cc45)CC3)nc2C)cc1F [P-3212, 4-[4-[4-[5-(3-fluoro-4-methoxy-phenyl)-4-methyl-1H-imidazol-2-yl]-4-methyl-1-piperidyl]-7H-pyrrolo[2,3-d]pyrimidin-6-yl]benzamide] | 0.0001 to 1 | < 10000 |
| COc1ccc(-c2[nH]c(C3(C)CCN(c4ncnc5[nH]c(-c6ccc(NS(C)(=O)=O)cc6)cc45)CC3)nc2C)cc1F [P-3213, N-[4-[4-[4-[5-(3-fluoro-4-methoxy-phenyl)-4-methyl-1H-imidazol-2-yl]-4-methyl-1-piperidyl]-7H-pyrrolo[2,3-d]pyrimidin-6-yl]phenyl]methanesulfonamide] | 0.0001 to 1 | < 10000 |
| COc1ccc(-c2[nH]c(C3(C)CCN(c4ncnc5[nH]c(-c6ccc(OCC(=O)O)cc6)cc45)CC3)nc2C)cc1F [P-3214, 2-[4-[4-[4-[5-(3-fluoro-4-methoxy-phenyl)-4-methyl-1H-imidazol-2-yl]-4-methyl-1-piperidyl]-7H-pyrrolo[2,3-d]pyrimidin-6-yl]phenoxy]acetic acid] | 0.0001 to 1 | < 10000 |
| COc1ccc(-c2[nH]c(C3(C)CCN(c4ncnc5[nH]c(-c6ccc(N7CCOCC7)nc6)cc45)CC3)nc2C)cc1F [P-3215, 4-[5-[4-[4-[5-(3-fluoro-4-methoxy-phenyl)-4-methyl-1H-imidazol-2-yl]-4-methyl-1-piperidyl]-7H-pyrrolo[2,3-d]pyrimidin-6-yl]-2-pyridyl]morpholine] | 0.0001 to 1 | < 10000 |
| COc1ccc(-c2[nH]c(C3(C)CCN(c4ncnc5[nH]c(-c6ccc(C(N)=O)cc6)cc45)CC3)nc2C)cc1C [P-3216, 4-[4-[4-[5-(4-methoxy-3-methyl-phenyl)-4-methyl-1H-imidazol-2-yl]-4-methyl-1-piperidyl]-7H-pyrrolo[2,3-d]pyrimidin-6-yl]benzamide] | 0.0001 to 1 | < 10000 |
| COc1ccc(-c2[nH]c(C3(C)CCN(c4ncnc5[nH]c(-c6ccc(OCC(=O)O)cc6)cc45)CC3)nc2C)cc1C [P-3217, 2-[4-[4-[4-[5-(4-methoxy-3-methyl-phenyl)-4-methyl-1H-imidazol-2-yl]-4-methyl-1-piperidyl]-7H-pyrrolo[2,3-d]pyrimidin-6-yl]phenoxy]acetic acid] | 0.0001 to 1 | < 10000 |
| CNC(=O)c1ccc(-c2cc3c(N4CCC(C)(c5nc(C)c(-c6ccc(OC)c(C)c6)[nH]5)CC4)ncnc3[nH]2)cn1 [P-3218, 5-[4-[4-[5-(4-methoxy-3-methyl-phenyl)-4-methyl-1H-imidazol-2-yl]-4-methyl-1-piperidyl]-7H-pyrrolo[2,3-d]pyrimidin-6-yl]-N-methyl-pyridine-2-carboxamide] | 0.0001 to 1 | < 10000 |
| COc1ccc(-c2[nH]c(C3(C)CCN(c4ncnc5[nH]c(-c6ccc(N7CCOCC7)nc6)cc45)CC3)nc2C)cc1C [P-3219, 4-[5-[4-[4-[5-(4-methoxy-3-methyl-phenyl)-4-methyl-1H-imidazol-2-yl]-4-methyl-1-piperidyl]-7H-pyrrolo[2,3-d]pyrimidin-6-yl]-2-pyridyl]morpholine] | 0.0001 to 1 | < 10000 |
| CNC(=O)c1ccc(-c2cc3c(N4CCC(C)(c5nc(C)c(-c6ccc(OC)c(F)c6)[nH]5)CC4)ncnc3[nH]2)cn1 [P-3220, 5-[4-[4-[5-(3-fluoro-4-methoxy-phenyl)-4-methyl-1H-imidazol-2-yl]-4-methyl-1-piperidyl]-7H-pyrrolo[2,3-d]pyrimidin-6-yl]-N-methyl-pyridine-2-carboxamide] | 0.0001 to 1 | < 10000 |
| COc1cccc(-c2[nH]c(C3(C)CCN(c4ncnc5[nH]c(-c6ccc(OCC(=O)O)cc6)cc45)CC3)nc2C)c1 [P-3221, 2-[4-[4-[4-[5-(3-methoxyphenyl)-4-methyl-1H-imidazol-2-yl]-4-methyl-1-piperidyl]-7H-pyrrolo[2,3-d]pyrimidin-6-yl]phenoxy]acetic acid] | 0.0001 to 1 | < 10000 |
